By pEC50 is commonly meant −log10 of the EC50, conventionally taken in molar units. In general, EC50 refers to the concentration needed to bring the measured effect to its halfway point.

Assay type in all cases: cell-based
Test [1] has as its target T1, ΔF508-CFTR (Homo sapiens, UniProt P13569, DEL508-508).
T1 construct: host or cells: CFBE41o-, doxycycline-inducible
The test is described as follows: CFTR cell surface levels using HRP-tagged ΔF508-CFTR expressing CFBE cells, in the presence of a co-corrector. The conditions noted are these: HRP-tagged ΔF508-CFTR CFBE cells, in the presence of 3 μM co-corrector; for pEC50: read-out: EC50. Summed up: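 Chemiluminescent read-out of surface HRP (15 min, dark) after PBS washes. Activity is normalized as 100×(sample−DMSO)/(3 μM co-corrector alone−DMSO).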

The target of test [2] is T1, ΔF508-CFTR. The test is described as follows: CFTR cell surface levels using HRP-tagged ΔF508-CFTR expressing CFBE cells, intrinsic corrector capacity. Also on record: % Activation: concentration or dose not given beside the values. To be noted: HRP-tagged ΔF508-CFTR expressing CFBE41o- cells, compound alone (intrinsic corrector capacity), 20 hours at 33° C.; for pEC50: read-out: EC50. Summed up:
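Surface ΔF508-CFTR was measured as HRP chemiluminescence from an extracellular-loop-4 tag, expressed as percent activity between DMSO and a […] corrector control.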

Test [3] addresses T2, CFTR ΔF508 (Homo sapiens, UniProt P13569, DEL508-508).
T2 construct: bronchial epithelial cells isolated from CF patients homozygous for the CFTR ΔF508 mutation; McGill University; Asterand; University of North Carolina hAEC-CF; host or cells: primary human bronchial epithelial cells from CF patients homozygous for ΔF508, differentiated at air-liquid interface
The test is described as follows: Chronic TECC assay, primary bronchial epithelial cells of CF patients homozygous for CFTR ΔF508 (corrector, co-corrector and potentiator). To be noted: chronic TECC, AUC = full area under the curve upon forskolin stimulation; for % Activity at 1 μM (AUC**): test compound at 1 μM; for EC50: read-out: EC50 (nM) (AUC**). The method, boiled down: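 Primary bronchial epithelial cells from ΔF508-homozygous CF patients on collagen IV-coated Transwells were chronically treated with test compound plus corrector and potentiator, which were re-added before recording. Ieq was derived from PD and Rt in NaCl-Ringer, pH 7.4, at 37° C, with apical amiloride and bilateral forskolin, recorded every 2 min over 20 min. Ieq increase was normalized to controls, and EC50 was taken from per-well concentrations.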

The structures appear in SMILES notation. pEC50: −log10 of the molar value.

T1 sequence (P13569 with tags, fused parts or gaps DEL508-508): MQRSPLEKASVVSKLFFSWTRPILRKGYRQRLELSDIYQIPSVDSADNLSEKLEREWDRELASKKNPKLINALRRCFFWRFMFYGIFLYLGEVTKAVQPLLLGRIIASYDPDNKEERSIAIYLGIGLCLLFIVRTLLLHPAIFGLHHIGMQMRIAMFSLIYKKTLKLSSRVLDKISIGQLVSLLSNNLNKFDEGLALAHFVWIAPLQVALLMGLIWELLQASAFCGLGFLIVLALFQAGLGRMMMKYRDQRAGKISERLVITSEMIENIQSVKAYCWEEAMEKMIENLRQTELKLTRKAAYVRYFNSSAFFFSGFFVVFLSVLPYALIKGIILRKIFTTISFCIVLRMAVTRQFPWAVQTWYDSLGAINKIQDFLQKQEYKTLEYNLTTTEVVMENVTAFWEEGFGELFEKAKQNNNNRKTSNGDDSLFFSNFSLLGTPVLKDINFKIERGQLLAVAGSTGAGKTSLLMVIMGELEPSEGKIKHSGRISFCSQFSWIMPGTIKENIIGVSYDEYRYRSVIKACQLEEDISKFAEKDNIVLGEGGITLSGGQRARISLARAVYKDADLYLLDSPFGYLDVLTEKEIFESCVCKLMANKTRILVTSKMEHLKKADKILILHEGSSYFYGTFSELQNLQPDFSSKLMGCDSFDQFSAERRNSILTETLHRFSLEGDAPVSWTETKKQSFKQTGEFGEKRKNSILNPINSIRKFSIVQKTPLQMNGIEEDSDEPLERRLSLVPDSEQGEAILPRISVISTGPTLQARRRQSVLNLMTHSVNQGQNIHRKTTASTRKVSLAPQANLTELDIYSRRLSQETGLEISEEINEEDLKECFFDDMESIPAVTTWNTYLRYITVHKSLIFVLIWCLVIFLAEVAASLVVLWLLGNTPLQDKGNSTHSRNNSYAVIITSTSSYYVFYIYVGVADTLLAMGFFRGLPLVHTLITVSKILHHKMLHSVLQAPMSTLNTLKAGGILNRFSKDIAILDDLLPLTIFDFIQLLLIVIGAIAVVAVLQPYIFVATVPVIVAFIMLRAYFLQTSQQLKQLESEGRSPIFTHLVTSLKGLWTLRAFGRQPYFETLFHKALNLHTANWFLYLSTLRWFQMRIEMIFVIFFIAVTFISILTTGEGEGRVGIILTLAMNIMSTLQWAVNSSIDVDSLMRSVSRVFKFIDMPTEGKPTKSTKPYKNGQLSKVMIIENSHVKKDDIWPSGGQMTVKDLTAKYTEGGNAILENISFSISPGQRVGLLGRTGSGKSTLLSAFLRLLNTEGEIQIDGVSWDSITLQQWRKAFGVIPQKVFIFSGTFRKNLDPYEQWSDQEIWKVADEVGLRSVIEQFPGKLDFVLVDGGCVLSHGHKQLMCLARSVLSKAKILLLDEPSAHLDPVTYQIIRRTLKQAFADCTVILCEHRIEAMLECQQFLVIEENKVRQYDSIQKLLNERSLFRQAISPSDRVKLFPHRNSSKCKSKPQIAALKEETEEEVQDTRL
T2 sequence (P13569 with tags, fused parts or gaps DEL508-508): as above

On to `CS(=O)(=O)NC(=O)c1cc(OCC2CCOCC2)c2c(C3CCC3)nn(-c3ccccc3)c2n1` [Compound 200, 3-cyclobutyl-N-(methanesulfonyl)-4-[(oxan-4-yl)methoxy]-1-phenyl-1H-pyrazolo[3,4-b]pyridine-6-carboxamide], for which, in test [1], the “% Activation” value is reported as 318.27% and the pEC50 is 7.02. In addition, in test [2], the “% Activation” value is reported as 163.43% and the pEC50 was 6.50. Further, the “% Activity at 1 μM (AUC**)” value in test [3] is on record as 364.3%.

Regarding `CS(=O)(=O)NC(=O)c1cc(-c2ccc(N3CCC(C#N)CC3)nc2)c2c(C3CCC3)nn(-c3ccnc(N4CCOCC4)c3)c2n1` [Compound 201, 4-[6-(4-cyanopiperidin-1-yl)pyridin-3-yl]-3-cyclobutyl-N-(methanesulfonyl)-1-[2-(morpholin-4-yl)pyridin-4-yl]-1H-pyrazolo[3,4-b]pyridine-6-carboxamide], in test [1], the “% Activation” value stood at 379.9% and the negative logarithm of the EC50 (pEC50) was 6.53. Moreover, in test [2], the “% Activation” value is given as 200.8% and the pEC50 was 6.40. In addition, in test [3], the half-maximal effective concentration (EC50) was below 300 nM and the “% Activity at 1 μM (AUC**)” value is 250%.

Consider `COC1CCN(c2cc(C(=O)NS(=O)(=O)C3CCOCC3)nc3c2c(C2CCC2)nn3-c2ccccc2)CC1` [Compound 207, 3-cyclobutyl-4-(4-methoxypiperidin-1-yl)-N-(oxane-4-sulfonyl)-1-phenyl-1H-pyrazolo[3,4-b]pyridine-6-carboxamide], for which, in test [1], the “% Activation” value was found to be 284.87% and the pEC50 was 6.76. Besides, in test [2], the “% Activation” value was 141.93% and the pEC50 is 6.47. Further, the “% Activity at 1 μM (AUC**)” value in test [3] is listed as 441.31%.

For the compound `COC(=O)N1CCC2CN(c3cc(C(=O)NS(C)(=O)=O)nc4c3c(C3CCC3)nn4-c3ccccc3)CCC21` (centres unmarked) [Compound 215, methyl 5-{3-cyclobutyl-6-[(methanesulfonyl)carbamoyl]-1-phenyl-1H-pyrazolo[3,4-b]pyridin-4-yl}octahydro-1H-pyrrolo[3,2-c]pyridine-1-carboxylate], in test [1], the “% Activation” value is given as 569.35% and the pEC50 is 7.32. Besides, in test [2], the “% Activation” value is given as 374.57% and the pEC50 is 6.56. Further, in test [3], the EC50 was found to be 45 nM and the “% Activity at 1 μM (AUC**)” value is given as 320%.

Take `CN(C)C[C@@H](F)C1CCN(c2cc(C(=O)NS(C)(=O)=O)nc3c2c(C2CCC2)nn3-c2ccccc2)CC1` [Compound 219, 3-cyclobutyl-4-{4-[(1S)-2-(dimethylamino)-1-fluoroethyl]piperidin-1-yl}-N-(methanesulfonyl)-1-phenyl-1H-pyrazolo[3,4-b]pyridine-6-carboxamide]: the “% Activation” value is recorded as 524.4% in test [1] and 381.1% in test [2]. Further, the pEC50 in test [1] was 6.64; in test [2], 6.12. Besides, the “% Activity at 1 μM (AUC**)” value in test [3] came out at 298.20%.

As for `COC(C)(C)C1CCN(c2cc(C(=O)NS(C)(=O)=O)nc3c2c(C(C)C)nn3-c2ccc(F)cc2)CC1` [Compound 221, 1-(4-fluorophenyl)-N-(methanesulfonyl)-4-[4-(2-methoxypropan-2-yl)piperidin-1-yl]-3-(propan-2-yl)-1H-pyrazolo[3,4-b]pyridine-6-carboxamide], in test [1], the “% Activation” value was 492.2% and the pEC50 was 7.11. For the same compound, in test [2], the “% Activation” value was found to be 322.15% and the pEC50 was 6.38. In addition, in test [3], the EC50 is 40 nM and the “% Activity at 1 μM (AUC**)” value is on record as 245.9%.

In the case of `COCCS(=O)(=O)NC(=O)c1cc(-c2ccc(N3CCOCC3)cc2)c2c(OC(C)C)nn(-c3ccccc3)c2n1` [Compound 226, N-(2-methoxyethanesulfonyl)-4-[4-(morpholin-4-yl)phenyl]-1-phenyl-3-[(propan-2-yl)oxy]-1H-pyrazolo[3,4-b]pyridine-6-carboxamide], in test [1], the “% Activation” value turned out to be 392.95% and the negative-log EC50 (pEC50) is 6.41. Also, in test [2], the “% Activation” value was 206.7% and the negative logarithm of the EC50 (pEC50) was 6.35. Besides, in test [3], the concentration for a half-maximal effect (EC50) is 56 nM and the “% Activity at 1 μM (AUC**)” value is recorded as 530%.

Turning to `CS(=O)(=O)NC(=O)c1cc(N2CCC(OC3CCCC3)CC2)c2c(C3CCC3)nn(-c3ccccc3)c2n1` [Compound 228, 3-cyclobutyl-4-[4-(cyclopentyloxy)piperidin-1-yl]-N-(methanesulfonyl)-1-phenyl-1H-pyrazolo[3,4-b]pyridine-6-carboxamide], in test [1], the “% Activation” value amounted to 395.1% and the negative-log EC50 (pEC50) is 6.48. Further, in test [2], the “% Activation” value came out at 217.9% and the pEC50 was 6.31. For the same compound, in test [3], the EC50 came out at 32 nM and the “% Activity at 1 μM (AUC**)” value was determined as 240%.

`CS(=O)(=O)NC(=O)c1cc(N2CCC(OC3CCCCC3)CC2)c2c(C3CCC3)nn(-c3ccccc3)c2n1` [Compound 229, 3-cyclobutyl-4-[4-(cyclohexyloxy)piperidin-1-yl]-N-(methanesulfonyl)-1-phenyl-1H-pyrazolo[3,4-b]pyridine-6-carboxamide]: in test [1], the “% Activation” value was found to be 418.65% and the pEC50 is 6.44. Moreover, in test [2], the “% Activation” value was found to be 174.2% and the pEC50 is 6.38. For the same compound, in test [3], the EC50 amounted to 20 nM and the “% Activity at 1 μM (AUC**)” value was 430%.

Turning to `CS(=O)(=O)NC(=O)c1cc(N2CCC(OCC3CC3)CC2)c2c(C3CCC3)nn(-c3ccccc3)c2n1` [Compound 230, 3-cyclobutyl-4-[4-(cyclopropylmethoxy)piperidin-1-yl]-N-(methanesulfonyl)-1-phenyl-1H-pyrazolo[3,4-b]pyridine-6-carboxamide], in test [1], the “% Activation” value is 440.1% and the negative-log EC50 (pEC50) is 6.74. Moreover, in test [2], the “% Activation” value is listed as 243.75% and the negative-log EC50 (pEC50) was 6.39. For the same compound, in test [3], the EC50 came to 27 nM and the “% Activity at 1 μM (AUC**)” value worked out at 265.44%.

Take `COCCS(=O)(=O)NC(=O)c1cc(N2CCC(COC)CC2)c2c(C(C)C)nn(-c3ccc(F)cc3)c2n1` [Compound 236, 1-(4-fluorophenyl)-N-(2-methoxyethanesulfonyl)-4-[4-(methoxymethyl)piperidin-1-yl]-3-(propan-2-yl)-1H-pyrazolo[3,4-b]pyridine-6-carboxamide]: in test [1], the “% Activation” value is listed as 497.5% and the pEC50 was 7.03. Also, in test [2], the “% Activation” value was 309.83% and the pEC50 is 6.50. Moreover, in test [3], the EC50 stood at 80 nM and the “% Activity at 1 μM (AUC**)” value is on record as 434.22%.

For `CS(=O)(=O)NC(=O)c1cc(OCC2CCC(F)(F)C2)c2c(C3CCC3)nn(-c3ccccc3)c2n1` (centres unmarked) [Compound 238, 3-cyclobutyl-4-[(3,3-difluorocyclopentyl)methoxy]-N-(methanesulfonyl)-1-phenyl-1H-pyrazolo[3,4-b]pyridine-6-carboxamide], in test [1], the “% Activation” value was determined as 347.55% and the pEC50 is 6.66. In addition, in test [2], the “% Activation” value came to 159.83% and the pEC50 was 6.22. Moreover, in test [3], the “% Activity at 1 μM (AUC**)” value came to 521.96%.

Consider `CC(C)c1nn(-c2ccc(F)cc2)c2nc(C(=O)NS(C)(=O)=O)cc(N3CCC(C#N)CC3)c12` [Compound 240, 4-(4-cyanopiperidin-1-yl)-1-(4-fluorophenyl)-N-(methanesulfonyl)-3-(propan-2-yl)-1H-pyrazolo[3,4-b]pyridine-6-carboxamide], for which, in test [1], the “% Activation” value is 312.8% and the pEC50 is 6.86. For the same compound, in test [2], the “% Activation” value is reported as 176.67% and the negative-log EC50 (pEC50) was 6.42. In test [3], the EC50 is 140 nM and the “% Activity at 1 μM (AUC**)” value worked out at 288.71%.

On to `COC(C)C1CCN(c2cc(C(=O)NS(C)(=O)=O)nc3c2c(C2CCC2)nn3-c2ccccc2)CC1` (centres unmarked) [Compound 241, 3-cyclobutyl-N-(methanesulfonyl)-4-[4-(1-methoxyethyl)piperidin-1-yl]-1-phenyl-1H-pyrazolo[3,4-b]pyridine-6-carboxamide], for which, in test [1], the “% Activation” value amounted to 488.15% and the pEC50 was 7.09. Further, in test [2], the “% Activation” value was found to be 261.93% and the negative-log EC50 (pEC50) was 6.44. Further, in test [3], the EC50 was below 10 nM and the “% Activity at 1 μM (AUC**)” value is on record as 400%.

As for `COC(C)(C1CCN(c2cc(C(=O)NS(C)(=O)=O)nc3c2c(C2CCC2)nn3-c2ccccc2)CC1)C(F)(F)F` (centres unmarked) [Compound 242, 3-cyclobutyl-N-(methanesulfonyl)-1-phenyl-4-[4-(1,1,1-trifluoro-2-methoxypropan-2-yl)piperidin-1-yl]-1H-pyrazolo[3,4-b]pyridine-6-carboxamide], in test [1], the “% Activation” value is 459.15% and the pEC50 was 6.69. Besides, in test [2], the “% Activation” value turned out to be 242.1% and the pEC50 was 6.55. In test [3], the EC50 is 14 nM and the “% Activity at 1 μM (AUC**)” value is listed as 308.45%.

(Values after patent US10259810B2, “N-sulfonylated pyrazolo[3,4-b]pyridin-6-carboxamides and method of use” (AbbVie S.à.r.l., priority 2015, dated 2019).)
